Reference: US7893066B2, “Pyridol[2,3-B]pyrazinones for use as stearoyl CoA desaturase inhibitors” (Gilead Palo Alto, Inc., priority 2006, dated 2011)

Target: T1, stearoyl-CoA desaturase (SCD) (Rattus norvegicus, UniProt P07308)
T1 construct: from tissue; host or cells: liver microsomes of male Sprague Dawley rats, with SCD induced by a carbohydrate-rich diet
T1 sequence (P07308 1-358): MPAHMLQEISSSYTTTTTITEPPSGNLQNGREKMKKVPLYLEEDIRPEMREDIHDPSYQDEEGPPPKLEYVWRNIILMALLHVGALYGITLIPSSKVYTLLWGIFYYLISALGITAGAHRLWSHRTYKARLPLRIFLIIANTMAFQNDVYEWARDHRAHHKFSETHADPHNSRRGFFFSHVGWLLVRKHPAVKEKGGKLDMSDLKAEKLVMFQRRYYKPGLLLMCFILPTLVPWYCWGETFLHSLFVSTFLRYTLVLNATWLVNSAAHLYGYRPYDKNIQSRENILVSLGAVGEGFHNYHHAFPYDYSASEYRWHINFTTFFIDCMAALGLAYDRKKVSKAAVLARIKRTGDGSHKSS
Assay: SCD assay, rat liver microsomes with [3H]stearoyl CoA (adapted from Talamo and Bloch)
Format: biochemical
Settings: second table, same SCD assay
Source text: The identification of compounds of the invention as SCD inhibitors was readily accomplished using the SCD enzyme and microsomal assay procedure described in Talamo and Bloch (1969) Analytical Biochemistry 29:300-304.
The rat liver microsomes were collected according to the procedure described in Ozols (1990) Methods Enzm, 182:225.
Male Spraque Dawley Rats were placed on regimented fasting protocol for one week to stimulate SCD enzymatic activity. 48-hour periods were alternated between feeding and fasting to induce and down-regulate SCD activity with SCD activity being induced via carbohydrate rich diet prior to liver perfusion and collection.
The rats were anesthetized with Isoflurane inhalation anesthetic, the liver perfused with cold phosphate buffered saline (PBS), weighed, and chilled in cold homogenization buffer (250 mM sucrose, 10 mM Tris, 1 mM EDTA, pH 7.6.
The livers were finely minced and placed in homogenization tube. 40 mL of homogenization buffer was added to the homogenization tube and the liver homogenized and centrifuged in a pre-chilled SLA-600 TC at 800G rotor for 10 min at 4° C.
Following centrifugation, the supernatant was collected and the pellet removed and discarded. This supernatant was then centrifuged at 10,000G for 35 minutes. Following centrifugation, the supernatant was collected and the pellet discarded. The supernatant was further centrifuged in a pre-chilled 45-Ti rotor at 130,000 G (41,000 RPM) for 90 minutes at 4° C.
The supernatant was then aspirated off and the collected microsomal pellet washed in 25 mL of Glycerol PBS (1×PBS 7.4, 20% Glycerol) and resuspended in 4-5 volumes of Glycerol PBS.
The protein concentration of the microsomal preparation was determined by BCA assay (Pierce) and the microsomes were aliquoted and stored at −80° C.
Biobeads were ground to a smaller size in a mortar and pestle and filtered through 300 μM mesh and then resuspended in 3.6% TCA.
SCD was determined in the desaturase assay buffer. This assay buffer contained 0.1 M Tris buffer, pH 7.2, 2 mM NADH, 4.8 mM ATP, 0.5 mM CoA, 4.8 mM MgCl2, and 0.1% BSA.
1 μl of each compound of Formula I was added to an assay plate by a low volume (0.5-10 μL) multichannel pipette. A DMSO control was also prepared. The microsomes were quickly thawed and added to assay buffer so that a concentration of 1-0.1 mg/ml was achieved (0.5-0.05 mg/ml assay final). 50 μl of the microsome suspension in assay buffer was then added into each well in the compound assay plate, the plate was covered, and the microsomes preincubated with the compounds for 30-60 minutes on the orbital shaker, 50-75 rpm, at room temperature.
After preincubation, the reaction was initiated by the addition of 50 μl of substrate solution (20 μM Stearoyl CoA, [3H]Stearoyl CoA, 74nCi) to the preincubated microsomes/compound suspensions in MilliQ (Millipore) H2O. The reaction mixtures were then incubated for 45 minutes on the orbital shaker at 50-75 rpm at room temperature.
The reaction was terminated by the addition of 10 μl of 21% trichloroacetic acid (TCA) to the reaction mixture followed incubation on the orbital shaker for 30 minutes at 50-75 rpm at room temperature followed by centrifugation for 5 minutes at 3700 rpm.
50 μl of a 6% Bio-Bead suspension in H2O was added to the reaction mixture and the assay plate was sealed. The Bio-Bead mixture was incubated on the orbital shaker for 1 to 24 hours, 100-150 rpm at room temperature, and then the mixture was centrifuged at 2000g for 5 minutes to pellet the Bio-Beads.
25 μl of the supernatant was harvested from each well and transferred to a detection plate. 100 μl of OptiPhase SuperMix scinitillation cocktail (containing sufficient NaOH to neutralize the TCA) was added and the solutions mixed by vigorous shaking (300-400 rpm) for 5 minutes at room temperature.

Row | Molecule | IC50 [nM]
1 | 2,3-dihydroxy-N-(2-(3-methyl-2-oxo-7-(3-(trifluoromethyl)benzylamino)quinoxalin-1(2H)-yl)ethyl)propanamide [compound 52] | 360
2 | 3-(2-(4-(2-methoxyethoxy)phenyl)-3-oxo-6-(3-(trifluoromethyl)benzylamino)pyrido[2,3-b]pyrazin-4(3H)-yl)propanamide [compound 30] | 190
3 | 3-(2-(4-ethylphenyl)-3-oxo-6-(3-(trifluoromethyl)benzylamino)pyrido[2,3-b]pyrazin-4(3H)-yl)propanamide [compound 29] | 150
4 | 3-(2-(4-methoxyphenyl)-3-oxo-6-(3-(trifluoromethyl)benzylamino)pyrido[2,3-b]pyrazin-4(3H)-yl)propanamide [compound 6] | 35
5 | 3-(3-oxo-2-(4-propylphenyl)-6-(3-(trifluoromethyl)benzylamino)pyrido[2,3-b]pyrazin-4(3H)-yl)propanamide [compound 31] | 380
6 | 3-(3-oxo-6-(3-(trifluoromethyl)benzylamino)-2-(4-(trifluoromethyl)phenyl)pyrido[2,3-b]pyrazin-4(3H)-yl)propanamide [compound 38] | 130
7 | 3-(6-(3,4-dichlorobenzylamino)-2-(4-methoxyphenyl)-3-oxopyrido[2,3-b]pyrazin-4(3H)-yl)-N-methylpropanamide [compound 12] | 95
8 | 4-(2-(4-methoxyphenyl)-3-oxo-6-(3-(trifluoromethyl)benzylamino)pyrido[2,3-b]pyrazin-4(3H)-yl)butanamide [compound 35] | 150
9 | COc1ccc(-c2nc3ccc(NCc4ccc(Cl)c(Cl)c4)nc3n([C@H]3CCNC3)c2=O)cc1 [compound 2, (S)-6-(3,4-dichlorobenzylamino)-2-(4-methoxyphenyl)-4-(pyrrolidin-3-yl)pyrido[2,3-b]pyrazin-3(4H)-one] | 1800
10 | COc1ccc(-c2nc3ccc(NCc4cccc(C(F)(F)F)n4)nc3n(CCNC(C)=O)c2=O)cc1 [compound 3, N-(2-(2-(4-methoxyphenyl)-3-oxo-6-((6-(trifluoromethyl)pyridin-2-yl)methylamino)pyrido[2,3-b]pyrazin-4(3H)-yl)ethyl)acetamide] | 10000
11 | COc1ccc(-c2nc3ccc(NCc4cc(C(F)(F)F)ccn4)nc3n(CCNC(C)=O)c2=O)cc1 [compound 4, N-(2-(2-(4-methoxyphenyl)-3-oxo-6-((4-(trifluoromethyl)pyridin-2-yl)methylamino)pyrido[2,3-b]pyrazin-4(3H)-yl)ethyl)acetamide] | 180
12 | COc1ccc(-c2nc3ccc(NCc4ccc(Cl)c(Cl)c4)nc3n(C(C)CC(N)=O)c2=O)cc1 (stereo not drawn) [compound 5, 3-(6-(3,4-dichlorobenzylamino)-2-(4-methoxyphenyl)-3-oxopyrido[2,3-b]pyrazin-4(3H)-yl)butanamide] | 53
13 | CC(=O)NCCn1c(=O)cnc2ccc(NCc3cccc(C(F)(F)F)c3)nc21 [compound 7, N-(2-(3-oxo-6-(3-(trifluoromethyl)benzylamino)pyrido[2,3-b]pyrazin-4(3H)-yl)ethyl)acetamide] | 220
14 | COc1ccc(-c2nc3ccc(NCc4ccccc4)nc3n(CCNC(C)=O)c2=O)cc1 [compound 8, N-(2-(6-(benzylamino)-2-(4-methoxyphenyl)-3-oxopyrido[2,3-b]pyrazin-4(3H)-yl)ethyl)acetamide] | 840
15 | COc1ccc(-c2nc3ccc(NCc4cccnc4)nc3n(CCNC(C)=O)c2=O)cc1 [compound 9, N-(2-(2-(4-methoxyphenyl)-3-oxo-6-(pyridin-3-ylmethylamino)pyrido[2,3-b]pyrazin-4(3H)-yl)ethyl)acetamide] | 30000
16 | COc1ccc(-c2nc3ccc(NCc4cccc(F)c4)nc3n(CCNC(C)=O)c2=O)cc1 [compound 10, N-(2-(6-(3-fluorobenzylamino)-2-(4-methoxyphenyl)-3-oxopyrido[2,3-b]pyrazin-4(3H)-yl)ethyl)acetamide] | 18000
17 | COc1ccc(-c2nc3ccc(NCc4ccc(Cl)c(Cl)c4)nc3n(CCCC(N)=O)c2=O)cc1 [compound 11, 4-(6-(3,4-dichlorobenzylamino)-2-(4-methoxyphenyl)-3-oxopyrido[2,3-b]pyrazin-4(3H)-yl)butanamide] | 150
18 | CC(=O)NCCn1c(=O)cnc2ccc(NCc3ccc(Cl)c(Cl)c3)nc21 [compound 14, N-(2-(6-(3,4-dichlorobenzylamino)-3-oxopyrido[2,3-b]pyrazin-4(3H)-yl)ethyl)acetamide] | 510
19 | COC(=O)c1cccc(CNc2ccc3nc(-c4ccc(OC)cc4)c(=O)n(CCNC(C)=O)c3n2)c1 [compound 15, methyl 3-((4-(2-acetamidoethyl)-2-(4-methoxyphenyl)-3-oxo-3,4-dihydropyrido[2,3-b]pyrazin-6-ylamino)methyl)benzoate] | 19000
20 | CONC(=O)CCn1c(=O)c(-c2ccc(OC)cc2)nc2ccc(NCc3cccc(C(F)(F)F)c3)nc21 [compound 16, N-methoxy-3-(2-(4-methoxyphenyl)-3-oxo-6-(3-(trifluoromethyl)benzylamino)pyrido[2,3-b]pyrazin-4(3H)-yl)propanamide] | 930
21 | CCOC(=O)c1nc2ccc(NCc3cccc(C(F)(F)F)c3)nc2n(CCNC(C)=O)c1=O [compound 17, ethyl 4-(2-acetamidoethyl)-3-oxo-6-(3-(trifluoromethyl)benzylamino)-3,4-dihydropyrido[2,3-b]pyrazine-2-carboxylate] | 6700
22 | COc1ccc(-c2nc3ccc(NCc4cccc(C)c4)nc3n(CCNC(C)=O)c2=O)cc1 [compound 18, N-(2-(2-(4-methoxyphenyl)-6-(3-methylbenzylamino)-3-oxopyrido[2,3-b]pyrazin-4(3H)-yl)ethyl)acetamide] | 380
23 | CNC(=O)CCn1c(=O)c(-c2ccc(OC)cc2)nc2ccc(NCc3cccc(C(F)(F)F)c3)nc21 [compound 19, 3-(2-(4-methoxyphenyl)-3-oxo-6-(3-(trifluoromethyl)benzylamino)pyrido[2,3-b]pyrazin-4(3H)-yl)-N-methylpropanamide] | 360
24 | COc1ccc(-c2nc3ccc(NCc4cccc(OC(F)(F)F)c4)nc3n(CCNC(C)=O)c2=O)cc1 [compound 20] | 260
25 | COc1ccc(-c2nc3ccc(NCc4cc(C(F)(F)F)ccc4F)nc3n(CCNC(C)=O)c2=O)cc1 [compound 21, N-(2-(6-(2-fluoro-5-(trifluoromethyl)benzylamino)-2-(4-methoxyphenyl)-3-oxopyrido[2,3-b]pyrazin-4(3H)-yl)ethyl)acetamide] | 1500
26 | COCCOc1ccc(-c2nc3ccc(NCc4cccc(C(F)(F)F)c4)nc3n(CCNC(C)=O)c2=O)cc1 [compound 23, N-(2-(2-(4-(2-methoxyethoxy)phenyl)-3-oxo-6-(3-(trifluoromethyl)benzylamino)pyrido[2,3-b]pyrazin-4(3H)-yl)ethyl)acetamide] | 230
27 | CCCc1ccc(-c2nc3ccc(NCc4cccc(C(F)(F)F)c4)nc3n(CCNC(C)=O)c2=O)cc1 [compound 24, N-(2-(3-oxo-2-(4-propylphenyl)-6-(3-(trifluoromethyl)benzylamino)pyrido[2,3-b]pyrazin-4(3H)-yl)ethyl)acetamide] | 100
